The source of these data is patent publication US10588316B2 (priority 2015, dated 2020).

The subject of one assay is Fusarium asiaticum. As to the kind of experiment: microbe, parasite or virus in culture. The format is cell-based. As to conditions: F.a sensitive strains.
The subject of a further assay is Fusarium graminearum. As to the kind of experiment: microbe, parasite or virus in culture. It is filed as cell-based. Conditions: F.g sensitive strains.

As to `CCOC(=O)C(C#N)=C(N)c1ccccc1` [phenamacril], the “Median Effective Concentration (EC50) for Growth Inhibition” value in the assay with Fusarium asiaticum and in the assay on Fusarium graminearum was 0.165 µg/mL throughout.
